The numbers were not newly measured in patent publication US6362158B1, “Multi-phase clear fabric softening composition” (Colgate-Palmolive Co., priority 2000, dated 2002), which cites them from elsewhere.

Each structure is given as a SMILES string. “And” between values parts separate entries of the source, which are not always exact repeats. Identical values can stand only once.

For the first data set the following is noted: solvent; logarithm to base 10 of P.
On to `OCCCCO` [1-4 Butanediol], for which the “log P (octanol/water partition coefficient)” value is listed as “(log P = −1.3)”. On to `CCCOC(C)COC(C)CO` (centres unmarked) [DPnP, dipropylene glycol n-propyl ether], for which the “log P (octanol/water partition coefficient)” value is recorded as 0.99)^2. Regarding `CCCCCCCCCCO` [Decanol], the “log P (octanol/water partition coefficient)” value is reported as 3.32). Take `CCCCCCCCO` [Octanol]: the “log P (octanol/water partition coefficient)” value is given as 3.15). Take `CCCCCO` [Pentanol]: the “log P (octanol/water partition coefficient)” value is 1.3.

Turning to `CCCCOC(C)COC(C)COC(C)CO` (centres unmarked) [TPnB, tripropylene glycol n-butyl ether], the “log P (octanol/water partition coefficient)” value is 1.896 and 1.9.

For `CC(C)C(O)C(C)(C)CO` (centres unmarked) [Trimethyl Pentanediol], the “log P (octanol/water partition coefficient)” value is listed as 1.24.

Still in this data set, the particulars now being: solvent; logarithm to base 10 of P; listed as dipropylene glycol n-propyl ether.
Take `CCCOC(C)COC(C)CO` (centres unmarked) [DPnP, dipropylene glycol n-propyl ether]: the “log P (octanol/water partition coefficient)” value is reported as 0.994.
